In ChEMBL document CHEMBL1201862, “PubChem BioAssay data set” (2004):
Blank lines part the entries; values can stand above or below the molecule they belong to. Calls of active or inactive are those of the source.

Columns and labels:
HEK293 [1] = test: NOD1 signaling inhibitors, primary screen, cell-based, luminescence, uHTS (AID 1578); type: functional; conditions: Homo sapiens
HEK293 [2] = test: cells; type: functional, cell-based; conditions: Homo sapiens
HEK293 [3] = test: cells; type: functional, cell-based; conditions: Homo sapiens; remark: listed apart in the source
HEK293 [4] = test: NOD2 signaling inhibitors in MDP-stimulated cells, cell-based, uHTS, luminescence (AID 2001); type: functional; conditions: Homo sapiens
[5] = biological target: ADP-ribosylation factor GTPase-activating protein 1 (Rattus norvegicus, UniProt Q62848); test: Fluorescence polarization-based biochemical high throughput dose response screening assay to identify inhibitors of ADP-ribosylation factor GTPase activating protein 1 (ARFGAP1).; type: functional
[6] = biological target: Arf-GAP with SH3 domain, ANK repeat and PH domain-containing protein 1 (Homo sapiens, UniProt Q9ULH1); type: functional;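 further: biochemical fluorescence polarization dose–response screen measuring inhibition of ASAP1; ASAP1 GAP domain stimulating GTP hydrolysis by truncated human ARF1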
Paired box protein Pax-8 = Paired box protein Pax-8 (Homo sapiens, UniProt Q06710); test: inhibitors of PAX8-driven TPO luciferase reporter, dose response, RMG-I cells, cherry-pick (AID 687027); type: functional, cell-based;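 further: luciferase reporter driven by Pax8 target thyroperoxidase promoter measured by SteadyGlo luminescence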
[7] = IOSE-T80 ovarian epithelial cell cytotoxicity, dose response, cytotoxicity control for PAX8 inhibitor project, plate reader, dry powder samples (AID 743045); type: functional, cell-based
[8] = NIH:OVCAR-3 ovarian cancer cell cytotoxicity, dose response, PAX8 inhibitor project, plate reader, dry powder samples (AID 743044); type: functional, cell-based
[9] = biological target: 1-phosphatidylinositol 4,5-bisphosphate phosphodiesterase gamma-1 (Homo sapiens, UniProt P19174); test: Counterscreen for inhibitors of phospholipase C isozymes (PLC-B3): Fluorescence-based biochemical high throughput dose response assay to identify inhibitors of phospholipase C isozymes (PLC-gamma1).
[10] = biological target: 1-phosphatidylinositol 4,5-bisphosphate phosphodiesterase beta-3 (Homo sapiens, UniProt Q01970); test: Fluorescence-based biochemical high throughput dose response assay to identify inhibitors of phospholipase C isozymes (PLC-B3).
1-phosphatidylinositol 4,5-bisphosphate phosphodiesterase beta-3, sequence (Q01970 whole entry): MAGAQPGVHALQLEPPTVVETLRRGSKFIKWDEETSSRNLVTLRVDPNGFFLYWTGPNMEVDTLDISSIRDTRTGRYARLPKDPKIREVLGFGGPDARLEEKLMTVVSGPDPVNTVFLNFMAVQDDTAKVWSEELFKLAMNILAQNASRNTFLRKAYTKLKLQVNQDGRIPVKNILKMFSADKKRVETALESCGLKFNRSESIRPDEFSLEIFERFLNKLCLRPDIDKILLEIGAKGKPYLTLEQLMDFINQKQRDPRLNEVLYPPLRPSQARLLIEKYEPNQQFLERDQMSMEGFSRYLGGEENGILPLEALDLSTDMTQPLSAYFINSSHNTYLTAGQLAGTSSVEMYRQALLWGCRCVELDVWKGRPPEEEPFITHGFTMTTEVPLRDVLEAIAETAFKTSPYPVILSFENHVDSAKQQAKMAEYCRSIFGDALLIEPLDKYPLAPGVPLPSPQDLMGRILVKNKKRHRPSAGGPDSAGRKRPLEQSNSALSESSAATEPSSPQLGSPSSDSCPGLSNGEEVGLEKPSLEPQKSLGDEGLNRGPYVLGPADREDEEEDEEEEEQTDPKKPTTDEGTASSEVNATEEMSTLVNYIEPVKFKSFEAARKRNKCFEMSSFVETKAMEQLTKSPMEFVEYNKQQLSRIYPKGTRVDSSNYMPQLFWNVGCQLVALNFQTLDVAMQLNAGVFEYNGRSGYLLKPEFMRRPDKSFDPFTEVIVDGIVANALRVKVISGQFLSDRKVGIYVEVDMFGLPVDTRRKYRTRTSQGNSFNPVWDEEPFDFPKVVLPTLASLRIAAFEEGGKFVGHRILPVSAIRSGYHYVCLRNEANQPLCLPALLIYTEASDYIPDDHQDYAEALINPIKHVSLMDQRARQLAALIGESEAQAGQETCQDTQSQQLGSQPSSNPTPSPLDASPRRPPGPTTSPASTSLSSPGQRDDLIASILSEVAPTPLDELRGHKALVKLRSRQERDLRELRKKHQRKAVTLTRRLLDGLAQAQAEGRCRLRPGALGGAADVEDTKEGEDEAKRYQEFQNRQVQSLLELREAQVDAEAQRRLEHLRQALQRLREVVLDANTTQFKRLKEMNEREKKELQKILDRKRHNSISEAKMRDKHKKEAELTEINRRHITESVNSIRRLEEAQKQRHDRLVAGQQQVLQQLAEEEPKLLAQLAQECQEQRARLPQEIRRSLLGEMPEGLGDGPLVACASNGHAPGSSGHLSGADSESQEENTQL

[11] = biological target: T1, Polyadenylate-binding protein 1 (Homo sapiens, UniProt P11940); test: PABP1 MLLE–PAM2 interaction inhibitors, dose response, miRNA deadenylation inhibitor project, biochemical, fluorescence polarization, Cy5-PAM2 peptide, secondary (AID 602260); type: functional; conditions: read-out: IC50_Mean
T1 sequence (P11940 whole entry): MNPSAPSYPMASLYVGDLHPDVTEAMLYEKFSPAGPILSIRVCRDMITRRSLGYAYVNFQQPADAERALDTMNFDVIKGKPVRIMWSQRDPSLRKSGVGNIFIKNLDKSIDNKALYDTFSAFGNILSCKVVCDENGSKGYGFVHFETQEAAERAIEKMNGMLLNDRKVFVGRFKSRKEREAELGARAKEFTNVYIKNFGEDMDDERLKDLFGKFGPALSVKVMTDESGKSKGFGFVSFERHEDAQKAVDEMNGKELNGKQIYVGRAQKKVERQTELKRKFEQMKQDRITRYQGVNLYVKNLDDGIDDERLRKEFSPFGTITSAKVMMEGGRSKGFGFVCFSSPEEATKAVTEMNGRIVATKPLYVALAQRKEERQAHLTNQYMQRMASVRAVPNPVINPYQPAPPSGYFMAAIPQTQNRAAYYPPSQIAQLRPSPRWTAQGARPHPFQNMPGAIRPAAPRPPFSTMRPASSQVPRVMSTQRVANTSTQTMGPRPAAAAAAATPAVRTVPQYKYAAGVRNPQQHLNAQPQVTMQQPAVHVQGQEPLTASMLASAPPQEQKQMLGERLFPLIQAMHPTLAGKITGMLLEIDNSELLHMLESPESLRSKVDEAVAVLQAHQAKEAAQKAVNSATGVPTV

[12] = biological target: T1, Polyadenylate-binding protein 1; test: PABP1 MLLE–PAM2 binding inhibitor potency, dose response, biochemical, fluorescence polarization, FITC-PAM2 peptide (AID 602259); type: functional; conditions: read-out: IC50_Mean
[13] = biological target: T2, Sentrin-specific protease 8 (Homo sapiens, UniProt Q96LD8); type: functional
T2 sequence (Q96LD8 whole entry): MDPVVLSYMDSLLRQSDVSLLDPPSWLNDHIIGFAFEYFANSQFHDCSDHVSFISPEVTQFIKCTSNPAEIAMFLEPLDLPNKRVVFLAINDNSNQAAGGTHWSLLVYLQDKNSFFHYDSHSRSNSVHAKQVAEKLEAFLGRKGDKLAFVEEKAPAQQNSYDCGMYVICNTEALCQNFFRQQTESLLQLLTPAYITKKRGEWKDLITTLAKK

[14] = biological target: T2, Sentrin-specific protease 8; type: functional; remark: listed apart in the source
Caspase-3 = biological target: T3, Caspase-3 (Homo sapiens, UniProt P42574); test: Dose-response confirmation of uHTS inhibitor hits of Sentrin-Specific Protease 8 in a Caspase-3 Fluorescence assay.; type: functional
T3 sequence (P42574 whole entry): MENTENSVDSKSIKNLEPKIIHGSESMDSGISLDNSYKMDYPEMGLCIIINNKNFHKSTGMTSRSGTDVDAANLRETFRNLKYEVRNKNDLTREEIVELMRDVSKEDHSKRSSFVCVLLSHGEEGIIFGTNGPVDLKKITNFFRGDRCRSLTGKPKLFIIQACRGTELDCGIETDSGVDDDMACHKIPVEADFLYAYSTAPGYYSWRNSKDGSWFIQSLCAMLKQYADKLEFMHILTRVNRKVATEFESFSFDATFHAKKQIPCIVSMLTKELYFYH

[15] = biological target: Tyrosyl-DNA phosphodiesterase 2 (Homo sapiens, UniProt O95551); test: human TDP2 enzyme inhibitors, dose response, biochemical, epi absorbance, IC50 (AID 743297)
Tyrosyl-DNA phosphodiesterase 2, sequence (O95551 whole entry): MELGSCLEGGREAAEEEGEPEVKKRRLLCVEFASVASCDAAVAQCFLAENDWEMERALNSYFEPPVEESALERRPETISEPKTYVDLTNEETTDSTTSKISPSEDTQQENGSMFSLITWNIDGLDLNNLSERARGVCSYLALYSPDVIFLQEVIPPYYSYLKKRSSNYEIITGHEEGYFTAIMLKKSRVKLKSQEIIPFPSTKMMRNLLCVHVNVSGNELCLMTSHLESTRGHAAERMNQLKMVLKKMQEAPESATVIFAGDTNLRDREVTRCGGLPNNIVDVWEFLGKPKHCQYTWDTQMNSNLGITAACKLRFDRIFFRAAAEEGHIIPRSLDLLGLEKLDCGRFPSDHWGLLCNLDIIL

INS1 = test: beta cell apoptosis inhibitors, cytokine rescue, dose response, luminescence, retest (AID 449756); type: functional, cell-based; conditions: Rattus norvegicus, INS1;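 further: cell death triggered by IL-1 beta plus TNF-alpha plus IFN-gamma mixture; protective hits raise ATP signal compared with cytokine alone wells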
[16] = Shn3 3'UTR reporter inhibitors, dose response, cell-based, Clone20 osteoblasts, firefly luciferase, cherry-picked (AID 624132); type: functional;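 further: firefly luciferase luminescence from reporter carrying the Shn3 3'UTR in osteoblasts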
[17] = HepG2 cell cytotoxicity, dose response, cytotoxicity control for Shn3 inhibitor project, CellTiter-Glo, cherry-picked (AID 624134); type: functional, cell-based
[18] = control 3'UTR Renilla luciferase suppression, dose response, counter-screen for Shn3 inhibitor project, cell-based, Clone20-Shn3RL, cherry-picked (AID 624133); type: functional
[19] = reduction of Shn3 3'UTR firefly luciferase signal, dose response, Schnurri-3 inhibitor project, cell-based, Clone20 osteoblasts, cherry-pick, set 2 (AID 720490); type: functional;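 further: actives lower the luminescence signal as inhibitors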
[20] = inhibitors of control Renilla luciferase reporter, dose response, counter-screen for Shn3 3'UTR targeting project, Clone20-Shn3RL cells, dual-Glo, cherry-pick, set 2 (AID 720724); type: functional, cell-based; conditions: Dual-Go Shn3RL
[21] = biological target: T4, Microphthalmia-associated transcription factor (Homo sapiens, UniProt O75030); test: TRPM1 promoter luciferase signal decrease, dose response, MITF inhibitor project, cell-based, SK-MEL-5, cherry-picked, set 3 (AID 493073); type: functional
T4 sequence (O75030 whole entry): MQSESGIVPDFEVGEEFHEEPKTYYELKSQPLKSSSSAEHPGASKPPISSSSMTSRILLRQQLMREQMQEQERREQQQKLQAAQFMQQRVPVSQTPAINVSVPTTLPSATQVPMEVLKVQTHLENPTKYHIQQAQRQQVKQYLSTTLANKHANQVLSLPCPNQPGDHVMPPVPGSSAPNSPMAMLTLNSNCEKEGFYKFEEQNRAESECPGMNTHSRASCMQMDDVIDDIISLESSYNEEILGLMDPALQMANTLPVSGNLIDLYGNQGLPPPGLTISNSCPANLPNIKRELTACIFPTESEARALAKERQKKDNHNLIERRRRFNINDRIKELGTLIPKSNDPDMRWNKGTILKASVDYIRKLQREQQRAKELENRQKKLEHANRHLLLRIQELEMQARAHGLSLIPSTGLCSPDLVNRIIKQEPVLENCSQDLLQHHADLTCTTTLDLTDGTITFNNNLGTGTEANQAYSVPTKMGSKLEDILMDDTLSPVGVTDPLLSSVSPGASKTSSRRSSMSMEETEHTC

[22] = biological target: Apoptotic protease-activating factor 1 (Homo sapiens, UniProt O14727); type: functional
Apoptotic protease-activating factor 1, sequence (O14727 whole entry): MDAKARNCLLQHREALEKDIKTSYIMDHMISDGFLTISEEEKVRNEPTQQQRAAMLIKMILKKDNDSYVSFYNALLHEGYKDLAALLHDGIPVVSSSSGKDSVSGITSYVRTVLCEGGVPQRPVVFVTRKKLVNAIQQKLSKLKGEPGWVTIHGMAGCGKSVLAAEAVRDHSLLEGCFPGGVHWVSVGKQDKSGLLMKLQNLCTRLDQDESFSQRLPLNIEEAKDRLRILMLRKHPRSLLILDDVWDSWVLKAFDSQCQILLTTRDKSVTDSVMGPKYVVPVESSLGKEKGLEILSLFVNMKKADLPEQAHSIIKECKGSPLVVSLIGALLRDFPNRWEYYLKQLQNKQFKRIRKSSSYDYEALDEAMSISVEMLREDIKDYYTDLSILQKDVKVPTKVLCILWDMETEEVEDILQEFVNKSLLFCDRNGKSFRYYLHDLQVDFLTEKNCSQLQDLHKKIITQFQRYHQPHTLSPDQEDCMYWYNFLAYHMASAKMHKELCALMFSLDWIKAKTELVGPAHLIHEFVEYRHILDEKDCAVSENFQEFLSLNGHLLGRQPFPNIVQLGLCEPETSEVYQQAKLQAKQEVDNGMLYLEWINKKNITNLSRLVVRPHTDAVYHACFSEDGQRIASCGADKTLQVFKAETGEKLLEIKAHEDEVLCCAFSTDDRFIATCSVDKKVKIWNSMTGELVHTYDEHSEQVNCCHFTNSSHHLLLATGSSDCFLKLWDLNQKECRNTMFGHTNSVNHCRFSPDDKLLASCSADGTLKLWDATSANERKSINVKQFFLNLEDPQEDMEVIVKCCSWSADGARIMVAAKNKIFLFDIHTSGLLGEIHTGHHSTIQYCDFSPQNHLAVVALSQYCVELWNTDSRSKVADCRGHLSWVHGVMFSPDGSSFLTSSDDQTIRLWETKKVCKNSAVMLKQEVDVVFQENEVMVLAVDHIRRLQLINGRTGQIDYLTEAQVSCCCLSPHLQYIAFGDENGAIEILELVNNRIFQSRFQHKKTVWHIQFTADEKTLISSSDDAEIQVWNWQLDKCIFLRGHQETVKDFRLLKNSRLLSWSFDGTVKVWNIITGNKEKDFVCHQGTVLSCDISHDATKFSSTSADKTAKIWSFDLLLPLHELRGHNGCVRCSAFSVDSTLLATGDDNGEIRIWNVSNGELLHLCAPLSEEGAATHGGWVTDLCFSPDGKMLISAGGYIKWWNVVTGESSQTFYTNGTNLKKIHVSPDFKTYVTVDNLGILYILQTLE

[23] = HepG2 cell cytotoxicity, dose response, cytotoxicity control, ATP luminescence, cherry-pick, activator set 2 (AID 1053143); type: functional, cell-based
[24] = biological target: Matrix metalloproteinase-14 (Homo sapiens, UniProt P50281); test: Dose Response confirmation of uHTS hits for a small molecule inhibitors of MT1-MMP activation in a fluorescence assay set 1.; type: functional
[25] = biological target: Metabotropic glutamate receptor 3 (Rattus norvegicus, UniProt P31422); test: mGlu3 NAM potency via calcium readout, dose response, mGlu3 NAM project, TREx293 cells, Galpha15, calcium flux (AID 651840); type: functional
[26] = biological target: DNA dC->dU-editing enzyme APOBEC-3A (Homo sapiens, UniProt P31941); test: APOBEC3A DNA deaminase inhibitors, dose response, biochemical (AID 504722); type: functional
DNA dC->dU-editing enzyme APOBEC-3A, sequence (P31941 whole entry): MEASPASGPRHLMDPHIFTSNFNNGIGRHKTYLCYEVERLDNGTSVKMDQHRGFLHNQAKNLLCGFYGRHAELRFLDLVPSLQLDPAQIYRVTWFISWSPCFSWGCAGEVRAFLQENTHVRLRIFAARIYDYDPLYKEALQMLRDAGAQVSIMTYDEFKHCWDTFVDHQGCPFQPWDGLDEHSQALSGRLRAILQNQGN

[27] = biological target: DNA dC->dU-editing enzyme APOBEC-3G (Homo sapiens, UniProt Q9HC16); test: Dose Response confirmation of small molecule APOBEC3G DNA Deaminase Inhibitors via a fluorescence-based single-stranded DNA deaminase assay. [Related pubchem assays (depositor defined):AID493012, AID493028]; type: functional
DNA dC->dU-editing enzyme APOBEC-3G, sequence (Q9HC16 whole entry): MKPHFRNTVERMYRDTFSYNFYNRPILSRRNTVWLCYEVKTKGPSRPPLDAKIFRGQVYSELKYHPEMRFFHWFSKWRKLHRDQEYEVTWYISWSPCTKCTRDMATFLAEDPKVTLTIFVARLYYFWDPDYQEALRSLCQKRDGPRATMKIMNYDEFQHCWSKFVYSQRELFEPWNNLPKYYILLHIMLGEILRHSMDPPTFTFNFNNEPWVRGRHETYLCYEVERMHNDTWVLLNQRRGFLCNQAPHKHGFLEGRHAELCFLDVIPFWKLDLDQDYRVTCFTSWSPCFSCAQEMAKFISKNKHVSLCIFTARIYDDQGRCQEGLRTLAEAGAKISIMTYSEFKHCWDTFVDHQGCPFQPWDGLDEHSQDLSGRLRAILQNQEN

[28] = biological target: Endoplasmic reticulum aminopeptidase 1 (Homo sapiens, UniProt Q9NZ08); test: ERAP1 aminopeptidase inhibitors, dose response, biochemical, cherry-pick, set 2, plate reader (AID 743314)
Endoplasmic reticulum aminopeptidase 1, sequence (Q9NZ08 whole entry): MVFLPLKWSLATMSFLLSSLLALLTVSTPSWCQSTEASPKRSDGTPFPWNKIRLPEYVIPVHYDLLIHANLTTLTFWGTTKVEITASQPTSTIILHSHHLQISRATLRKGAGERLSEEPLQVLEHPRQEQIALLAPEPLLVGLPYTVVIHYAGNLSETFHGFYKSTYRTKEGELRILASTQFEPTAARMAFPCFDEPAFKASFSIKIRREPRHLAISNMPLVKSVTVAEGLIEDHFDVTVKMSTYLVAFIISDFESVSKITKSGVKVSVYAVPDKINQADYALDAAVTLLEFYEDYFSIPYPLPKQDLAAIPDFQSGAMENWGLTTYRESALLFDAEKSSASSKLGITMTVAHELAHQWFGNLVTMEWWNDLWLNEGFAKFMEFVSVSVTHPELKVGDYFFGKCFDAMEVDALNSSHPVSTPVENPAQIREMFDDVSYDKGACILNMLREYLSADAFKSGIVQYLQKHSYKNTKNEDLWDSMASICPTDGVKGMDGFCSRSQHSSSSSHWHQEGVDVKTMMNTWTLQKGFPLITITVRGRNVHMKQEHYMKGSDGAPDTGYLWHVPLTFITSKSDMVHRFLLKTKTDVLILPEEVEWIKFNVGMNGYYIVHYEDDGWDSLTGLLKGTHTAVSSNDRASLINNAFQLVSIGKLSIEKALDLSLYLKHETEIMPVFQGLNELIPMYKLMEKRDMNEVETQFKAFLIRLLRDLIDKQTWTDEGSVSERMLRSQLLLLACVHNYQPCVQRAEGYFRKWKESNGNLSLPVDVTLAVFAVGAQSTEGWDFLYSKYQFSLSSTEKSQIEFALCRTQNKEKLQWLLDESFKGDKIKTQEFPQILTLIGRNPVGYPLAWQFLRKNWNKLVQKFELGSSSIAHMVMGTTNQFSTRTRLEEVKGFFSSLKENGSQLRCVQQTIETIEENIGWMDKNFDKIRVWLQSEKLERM

[29] = biological target: Induced myeloid leukemia cell differentiation protein Mcl-1 (Homo sapiens, UniProt Q07820); type: functional
[30] = HEK293T cytotoxicity, dose response, cytotoxicity control for miR-122 modulator project, cell-based, inhibitor set, cherry-pick, set 2 (AID 720697); type: functional

Compound: Clc1cccc(Cl)c1CONC=Nc1ncnc2sccc12
- EC50 (HEK293 [1]): > 20 µM (inactive)
- IC50 (HEK293 [2]): 7.79 µM (active)
- IC50 (HEK293 [3]): > 20 µM (inactive)
- IC50 (HEK293 [4]): 8.22 µM (active)
- IC50 [5]: 30.3 µM (inactive)
- IC50 [6]: 12.3 µM (inactive)

Compound: C[C@@H]1CCCCO[C@H](CN(C)Cc2ccccc2)[C@H](C)CN([C@@H](C)CO)C(=O)c2cc(NC(=O)Nc3ccc(C(F)(F)F)cc3)ccc2O1
- AC50 (Paired box protein Pax-8): 9.11 µM (active)
- AC50 [7]: 45.7 µM (active)
- AC50 [8]: 42.1 µM (active)

- IC50 [9]: 56.9 µM (inactive)
- IC50 [10]: > 122 µM (inactive)
Compound: O=C(C[S+]([O-])c1cccc(C(F)(F)F)c1)Nc1ccc(Cl)cc1Cl (stereo not drawn)

- IC50 [11]: > 66 µM (inactive)
- IC50 [12]: > 66 µM (inactive)
- IC50 (Caspase-3): 23.9 µM (active)
- IC50 [15]: 67.5 µM (inactive)
Compound: COc1ccc2c(c1)Cc1sc(NC(C)=O)nc1-2
- IC50 [13]: 9.19 µM (active)
- IC50 [14]: 6.35 µM (active)

Compound: CC(=O)N1c2ccc(S(=O)(=O)N3CCC(C(=O)N4CCN(c5cccc(C(F)(F)F)c5)CC4)CC3)cc2CC1C (stereo not drawn)
- AC50 (INS1): 7.43 µM (active)
- AC50 [16]: 1.28 µM (active)
- AC50 [17]: > 70 µM (inactive)
- AC50 [18]: 4.45 µM (active)
- AC50 [19]: 1.54 µM (active)
- AC50 [20]: 1.47 µM (active)

Compound: CCc1ccc(NC2=CC(=O)C(=O)c3ccccc32)cc1
- AC50 [21]: 3.59 µM (active)
- IC50 [22]: 3.54 µM (active)
- AC50 [23]: 6.77 µM (active)

- IC50 [24]: 18.5 µM (active)
Compound: CNc1c(C(=O)O)ccc2c1C(=O)c1ccccc1C2=O

- IC50 [25]: 0.509 µM
Compound: COc1ccc(C#Cc2ccc(C(=O)N3CCC[C@@H](O)C3)c(F)c2)cc1

Compound: O=C(CSc1cnn[nH]1)Nc1cccc(C(=O)O)c1
- IC50 [26]: > 100 µM (inactive)
- IC50 [27]: 15.3 µM (active)
- AC50 [28]: 8 µM (active)

Compound: CN1CCN(c2ccc(Cl)cc2NC(=O)c2ccc(S(=O)(=O)N3CCCCCC3)cc2)CC1
- IC50 [29]: 3.55 µM (active)
- AC50 [30]: 5.58 µM (active)
